≈ marks a conversion by molar mass, not a printed value.
Tests used:
[1] = physchem; details: phosphate buffer, pH 6.5
Description: Aqueous solubility of the compound in pH 6.5 phosphate buffer by RP-UPLC analysis

[2] = Ratio of test compound to atazanavir aqueous solubility in pH 5 buffer by RP-UPLC analysis; type: physicochemical
[3] = rat, in vivo, po, 3 mg/kg
Description: AUClast in cannulated Sprague-Dawley rat assessed as atazanavir level at 3 mg/kg equiv of atazanavir administered orally by UPLC/MS/MS analysis

[4] = in vitro; details: human, Caco-2
Description: Apparent permeability across apical to basolateral side in human Caco2 cells at 2 uM

[5] = molecular target: T1, UDP-glucuronosyltransferase 1A1 (Homo sapiens, UniProt P22309); assay: Inhibition of recombinant human UGT1A1 using bilirubin as substrate preincubated for 5 mins followed by substrate addition and measured after 40 mins by LC-MS/MS analysis; type: ADME
T1 sequence (P22309 whole entry): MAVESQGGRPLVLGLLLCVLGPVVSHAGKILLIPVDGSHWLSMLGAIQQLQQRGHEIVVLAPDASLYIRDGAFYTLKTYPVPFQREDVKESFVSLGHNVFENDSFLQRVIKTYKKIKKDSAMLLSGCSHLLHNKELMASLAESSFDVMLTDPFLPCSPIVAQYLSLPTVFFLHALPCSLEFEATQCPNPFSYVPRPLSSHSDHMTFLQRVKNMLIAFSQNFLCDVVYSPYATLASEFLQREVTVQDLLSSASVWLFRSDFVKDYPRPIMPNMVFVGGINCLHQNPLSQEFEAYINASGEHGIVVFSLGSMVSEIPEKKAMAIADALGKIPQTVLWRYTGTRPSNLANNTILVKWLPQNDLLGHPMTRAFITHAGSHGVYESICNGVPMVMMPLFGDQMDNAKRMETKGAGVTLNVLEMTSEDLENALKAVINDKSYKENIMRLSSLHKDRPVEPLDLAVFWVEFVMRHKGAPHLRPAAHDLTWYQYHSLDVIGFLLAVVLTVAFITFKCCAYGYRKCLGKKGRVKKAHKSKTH

[6] = Elimination half life in rat hepatocytes at 1 uM in presence of esterase inhibitor PMSF; type: ADME, cell-based, Hepatocyte; details: with PMSF (esterase inhibitor), read-out: beta t1/2
[7] = tested on: UGT1A1; assay: Ratio of test compound IC50 to atazanavir IC50 for recombinant cynomolgus monkey UGT1A1; type: ADME, Macaca fascicularis; details: read-out: Ratio IC50
[8] = Cmax in cannulated Sprague-Dawley rat assessed as atazanavir level at 6 mg/kg equiv of atazanavir administered orally by UPLC/MS/MS analysis; type: ADME, organism-based; parameters: dose 6 mg/kg, route oral; details: in vivo, po
[9] = molecular target: T1, UDP-glucuronosyltransferase 1A1; assay: Inhibition of UGT1A1 in human liver microsomes using beta-estradiol as substrate preincubated for 5 mins followed by substrate addition and measured after 40 mins by LC-MS/MS analysis; type: ADME
[10] = Drug recovery in intestinal homogenates of closed loop rat intestinal model at 1 mg/kg administered as cassette dose by LC/MS analysis; type: ADME, organism-based, Intestine; details: intestinal homogenate, other: closed loop intestinal model, read-out: Drug recovery
[11] = Drug recovery in intestinal content of closed loop rat intestinal model at 1 mg/kg administered as cassette dose by LC/MS analysis; type: ADME, organism-based; details: in vivo
[12] = in vitro; details: human, Caco-2; remark: listed apart in the source
Description: Apparent permeability across basolateral to apical side in human Caco2 cells at 2 uM

[13] = Drug recovery in mesenteric vein plasma of closed loop rat intestinal model at 1 mg/kg administered as cassette dose by LC/MS analysis; type: ADME, organism-based; details: in vivo
[14] = molecular target: T2, UDP-glucuronosyltransferase 1A1 (Rattus norvegicus, UniProt Q64550); assay: Inhibition of UGT1A1 in rat liver microsomes using beta-estradiol as substrate preincubated for 5 mins followed by substrate addition and measured after 40 mins by LC-MS/MS analysis; type: ADME
T2 sequence (Q64550 whole entry): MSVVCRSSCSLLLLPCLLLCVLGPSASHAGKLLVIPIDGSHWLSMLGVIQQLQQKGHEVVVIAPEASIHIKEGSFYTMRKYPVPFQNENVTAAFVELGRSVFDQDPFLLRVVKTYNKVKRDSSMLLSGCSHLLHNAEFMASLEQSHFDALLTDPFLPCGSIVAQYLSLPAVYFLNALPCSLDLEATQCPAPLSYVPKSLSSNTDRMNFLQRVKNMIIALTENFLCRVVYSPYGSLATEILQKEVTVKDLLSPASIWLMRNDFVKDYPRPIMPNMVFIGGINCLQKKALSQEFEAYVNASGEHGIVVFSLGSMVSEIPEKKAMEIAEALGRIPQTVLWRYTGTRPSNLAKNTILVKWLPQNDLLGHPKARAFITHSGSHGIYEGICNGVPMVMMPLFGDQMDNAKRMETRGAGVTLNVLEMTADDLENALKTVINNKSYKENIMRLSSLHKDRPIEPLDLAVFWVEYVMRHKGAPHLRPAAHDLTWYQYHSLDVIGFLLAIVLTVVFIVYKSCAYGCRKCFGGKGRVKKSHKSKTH

[15] = Aqueous solubility of the compound in pH 4 citrate buffer by RP-UPLC analysis; type: physicochemical
[16] = Cmin in cannulated Sprague-Dawley rat assessed as atazanavir level at 3 mg/kg equiv of atazanavir administered orally measured after 24 hrs by UPLC/MS/MS analysis; type: ADME, organism-based; details: in vivo, po, BLD = below limit of detection
[17] = Aqueous solubility of the compound in pH 3 buffer by RP-UPLC analysis; type: physicochemical
[18] = Total AUC in cannulated Sprague-Dawley rat assessed as atazanavir level at 30 mg/kg equiv of atazanavir administered orally by UPLC/MS/MS analysis relative to atazanavir alone; type: ADME, organism-based; details: in vivo, po
[19] = Ratio of test compound to atazanavir aqueous solubility in pH 6.5 phosphate buffer by RP-UPLC analysis; type: physicochemical
[20] = Drug metabolism in cannulated Sprague-Dawley rat assessed as prodrug to atazanavir ratio at 6 mg/kg equiv of atazanavir administered orally by UPLC/MS/MS analysis; type: ADME, organism-based; details: in vivo, po
[21] = molecular target: T2, UDP-glucuronosyltransferase 1A1; assay: Inhibition of recombinant rat UGT1A1 using beta-estradiol as substrate preincubated for 5 mins followed by substrate addition and measured after 40 mins by LC-MS/MS analysis; type: ADME
[22] = Aqueous solubility of the compound in FaSSIF by RP-HPLC analysis; type: physicochemical
[23] = Elimination half life in rat hepatocytes at 1 uM in absence of esterase inhibitor PMSF/CYP450 inhibitor ABT; type: ADME, cell-based, Hepatocyte; details: read-out: beta t1/2
[24] = molecular target: T3, UGT1A1 (Rattus norvegicus, UniProt Q64550); assay: Ratio of test compound IC50 to atazanavir IC50 for recombinant rat UGT1A1; type: ADME; details: read-out: Ratio IC50
T3 sequence (Q64550 whole entry): T2 sequence (Q64550 whole entry)

[25] = physchem; details: 30% CH3CN/phosphate buffer, pH 6.5
Description: Half life in pH 6.5 30%CH3CN/phosphate buffer at 50 mM by RP-UPLC analysis

[26] = Elimination half life in rat hepatocytes at 1 uM in presence of CYP450 inhibitor ABT; type: ADME, cell-based, Hepatocyte; details: with ABT (CYP450 inhibitor), read-out: beta t1/2
[27] = physchem; details: 30% CH3CN/acetate buffer, pH 4
Description: Half life in pH 4 30%CH3CN/acetate buffer at 50 mM by RP-UPLC analysis

[28] = Tmax in cannulated Sprague-Dawley rat assessed as atazanavir level at 6 mg/kg equiv of atazanavir administered orally by UPLC/MS/MS analysis; type: ADME, organism-based; details: in vivo, po

solubility [1]: 27 µg/mL (≈ 31.7 µM)
Ratio [2]: 1300
AUClast [3]: 0.573 µM·h
Papp A→B at 2 µM [4]: < 1.5 ×10⁻⁶ cm/s
IC50 [5]: 2.8 µM
half-life at 1 µM [6]: 1.28 h
Cmax [8]: 550 nM
IC50 [9]: 2.5 µM
recovery [10]: 5.6%
Drug recovery [11]: 32%
Papp B→A at 2 µM [12]: 13.1 ×10⁻⁶ cm/s
Drug recovery [13]: 2.8%
IC50 [14]: 19.5 µM
solubility [15]: > 1100 µg/mL
Cmin [16]: Bld
solubility [17]: > 3200 µg/mL
fold change (FC) [18]: 65.3
Ratio [19]: 27
Ratio [20]: 0.7
IC50 [21]: 12.6 µM
solubility [22]: 130 µg/mL (≈ 153 µM)
half-life at 1 µM [23]: 0.7 h
half-life at 50000 µM [25]: > 500 h
half-life at 1 µM [26]: > 2 h
half-life at 50000 µM [27]: > 500 h
Tmax [28]: 0.5 h
Structure (SMILES): COC(=O)N[C@H](C(=O)N[C@@H](Cc1ccccc1)[C@H](CN(Cc1ccc(-c2ccccn2)cc1)NC(=O)[C@@H](NC(=O)OC)C(C)(C)C)OC(=O)[C@@H](N)Cc1ccccc1)C(C)(C)C
selectivity ratio [7]: 17
selectivity ratio [24]: 3

— ChEMBL document CHEMBL4390686, “Design, Synthesis, and Pharmacokinetic Evaluation of Phosphate and Amino Acid Ester Prodrugs for Improving the Oral Bioavailability of the HIV-1 Protease Inhibitor Atazanavir” (J Med Chem, 2019)
